From patent publication US5455222A, “1-substituted-5-thiomethylthiocyanato-1H-tetrazoles, compositions containing them and their use as antimicrobial and marine antifouling agents” (The Dow Chemical Company, priority 1994, dated 1995)
Values after ≈ are worked out from the molar mass of the structure shown.

Assays:
Bacillus subtilis (Bs) = assay: Minimum inhibitory concentration (MIC), bacteria in nutrient agar; assay type: cell-based, Bacillus subtilis ATCC 8473; conditions: 48 hours
Description: (§1) The minimum inhibitory concentration (MIC) for the compounds listed in Table I is determined for 9 bacteria, using nutrient agar, and 7 yeast and fungi, using malt yeast agar. A one percent solution of the test compound is prepared in a mixture of acetone and water.
(§2) Nutrient agar is prepared at pH 6.8, representing a neutral medium, and at pH 8.2, representing an alkaline medium. The nutrient agars are prepared by adding 23 g of nutrient agar to one liter of deionized water. In addition, the alkaline medium is prepared by adjusting a 0.04M solution of N-[tris-(hydroxymethyl)methyl]glycine buffered deionized water with concentrated sodium hydroxide to a pH of 8.5.
(§3) The test tubes containing the agar are cooled in a water bath until the temperature of the agar is 48° C. Then, an appropriate amount of the one percent solution of the test compound is added (except in the controls where no compound is added) to the respective test tubes so that the final concentrations are 500, 250, 100, 50, 25, 10, 5, 2.5, 1.0 and zero parts per million of the test compound in the agar, thus having a known concentration of test compound dispersed therein. The contents of the test tubes are then transferred to respective petri plates. After drying for 24 hours, the petri plates containing nutrient agar are inoculated with bacteria and those containing malt yeast agar are inoculated with yeast and fungi.
(§4) The inoculation with bacteria is accomplished by using the following procedure. Twenty-four hour-cultures of each of the bacteria are prepared by incubating the respective bacteria in tubes containing nutrient broth for 24 hours at 30° C. in a shaker. Dilutions of each of the 24 hour-cultures are made so that nine separate suspensions (one for each of the nine test bacteria) are made, each containing 10^8 colony forming units (CFU) per mL of suspension of a particular bacteria. Aliquots of 0.3 mL of each of the bacterial suspensions are used to fill the individual wells of Steer's Replicator. For each microbial suspension, 0.3 mL was used to fill three wells (i.e., three wells of 0.3 mL each) so that for the nine different bacteria, 27 wells are filled. The Steer's Replicator is then used to inoculate both the neutral and alkaline pH nutrient agar petri plates.
(§5) The inoculated petri plates are incubated at 30° C. for 48 hours and then read to determine if the test compound which is incorporated into the agar prevented growth of the respective bacteria.
(§6) Table II lists the bacteria, yeast and fungi used in the MIC test described above along with their respective American Type Culture Collection (ATCC) identification numbers.
(§7) In Tables III and IV, the MIC values of the compounds described in Table I as compared to the MIC of a standard commercial preservative (with 1-(3-chloroallyl)-3,5,7-triaza-1-azoniaadamantane chloride as the active agent and referred to in Tables III and IV as "STANDARD I") are set forth for the bacteria organisms and yeast/fungi organisms which are listed in Table II.

[1] = system: Enterobacter aerogenes (Ea); assay: as above; assay type: cell-based, Enterobacter aerogenes ATCC 13048; conditions: Klebsiella aerogenes, 48 hours
Description: as §1, §2, §3, §4, §5, §6, §7

[2] = system: Klebsiella pneumoniae (Kp); assay: as above; assay type: cell-based, Klebsiella pneumoniae ATCC 8308; conditions: 48 hours
Description: as §1, §2, §3, §4, §5, §6, §7

Proteus vulgaris (Pv) = assay: as above; assay type: cell-based, Proteus vulgaris ATCC 881; conditions: 48 hours
Description: as §1, §2, §3, §4, §5, §6, §7

Aspergillus niger (An) = assay: Minimum inhibitory concentration (MIC), yeast/fungi in malt yeast agar; assay type: cell-based, Aspergillus niger ATCC 16404; conditions: 30° C., 72 hours for fungi
Description: as §1
(§8) Malt yeast agar is prepared by adding 3 g yeast extract and 45 g malt agar per liter of deionized water. The specific agar is dispensed in 30 mL aliquots into 25×200 mm test tubes, capped and autoclaved for 15 minutes at 115° C.
as §3
(§9) The inoculation with the yeast and fungi is accomplished as follows. Cultures of yeast and fungi are incubated for seven days on malt yeast agar at 30° C. These cultures are used to prepare suspensions by the following procedure. A suspension of each organism is prepared by adding 10 mL of sterile saline and 10 microliters of octylphenoxy polyethoxy ethanol to the agar slant of yeast or fungi. The sterile saline/octylphenoxy polyethoxy ethanol solution is then agitated with a sterile swab to suspend the microorganism grown on the slant. Each resulting suspension is diluted into sterile saline (1 part suspension to 9 parts sterile saline). Aliquots of these dilutions are placed in individual wells of Steer's Replicator and petri plates inoculated as previously described. The petri plates are incubated at 30° C. and read after 48 hours for yeast and 72 hours for fungi.
as §6, §7

Candida albicans (Ca) = assay: as above; assay type: cell-based, Candida albicans ATCC 10231; conditions: 30° C., 48 hours for yeast
Description: as §1, §8, §3, §9, §6, §7

[3] = system: Penicillium chrysogenum (Pc); assay: as above; assay type: cell-based, Penicillium chrysogenum ATCC 9480; conditions: 30° C., 72 hours for fungi
Description: as §1, §8, §3, §9, §6, §7

Fusarium oxysporum (Fo) = assay: as above; assay type: cell-based, Fusarium oxysporum ATCC 48112; conditions: 30° C., 72 hours for fungi
Description: as §1, §8, §3, §9, §6, §7

marine organisms = assay: Marine antifouling activity, coated test panels exposed to marine environment; conditions: scale 10 (completely free of growth) to 0 (completely covered); for Marine Antifouling Rating, 6 Week Test, Bottom Panel / Marine Antifouling Rating, 6 Week Test, Top Panel: 6 weeks; for Marine Antifouling Rating, 6 Week Test, Bottom Panel / Marine Antifouling Rating, 15 Week Test, Bottom Panel: bottom panel (black background); for Marine Antifouling Rating, 6 Week Test, Top Panel / Marine Antifouling Rating, 15 Week Test, Top Panel: top panel (white background); for Marine Antifouling Rating, 15 Week Test, Bottom Panel / Marine Antifouling Rating, 15 Week Test, Top Panel: 15 weeks
Description: Test panels are prepared from clear, rigid polyvinyl chloride film that is 0.381×10^-3 m thick and has one textured surface. The test panels are 0.1524 m by 0.1524 m squares that have 0.00635 m holes punched at corners on 0.127 m centers. A 0.102 square template, with a 0.067 m diameter hole at the center, is attached to the center of the textured surface of the test panels.
A candidate marine antifoulant compound (1.0 g) is stirred into a resinous latex binder (9.0 g). A portion of the compound/binder mixture (1.5 g) is added to the center of the test panel and uniformly spread over the circular area inside the template.
Water is added dropwise as needed to properly spread the compound/binder mixture. The template prevents the compound/binder mixture from spreading beyond the uncovered area. […] The template is then removed. The test panel is then allowed to dry for 8 to 12 hours at room temperature.
Two test panels are prepared for each candidate marine antifoulant compound. Two control test panels are also prepared by only treating with the resinous latex binder. One test panel of each candidate marine […] compound is attached over a white background to the topside of an exposure support apparatus. The second test panel is attached over a black background to the underside of the exposure support apparatus. The exposure support apparatus is placed horizontally 0.0254 m under a marine surface with the white background topside facing up.
After being removed from the exposure support apparatus, each test panel is inspected and rated for marine organism growth on both the treated and untreated areas of the test panel. The marine organisms present on the treated and untreated areas are noted. The presence of algae spores and bacterial slime are noted but not included in rating each test panel. The test panels are rated on a scale from 10 (representing completely free of marine organism growth) to 0 (representing completely covered with marine organism growth).
In addition, test panels were prepared using tributyl tin oxide, a known marine antifouling compound.

With `N#CSCSc1nnnn1-c1cccc(Cl)c1` [II, 1-(3-Chlorophenyl)-5-thiomethylthiocyanato-1H-tetrazole] the MIC (Bacillus subtilis (Bs); nutrient agar pH 6.8, 30° C.) was 100 µg/mL (≈ 352 µM), the MIC (Bacillus subtilis (Bs); nutrient agar pH 8.2, 30° C.) was 250 µg/mL (≈ 881 µM) and the MIC ([1]; nutrient agar pH 6.8, 30° C.) was 500 µg/mL (≈ 1760 µM). For the same compound, the MIC ([1]; nutrient agar pH 8.2, 30° C.) was 500 µg/mL (≈ 1760 µM), the MIC ([2]; nutrient agar pH 6.8, 30° C.) was 250 µg/mL (≈ 881 µM) and the MIC ([2]; nutrient agar pH 8.2, 30° C.) was 250 µg/mL (≈ 881 µM). The MIC (Proteus vulgaris (Pv); nutrient agar pH 6.8, 30° C.) was 100 µg/mL (≈ 352 µM), the MIC (Proteus vulgaris (Pv); nutrient agar pH 8.2, 30° C.) was 250 µg/mL (≈ 881 µM) and the MIC (Aspergillus niger (An)) was < 10 µg/mL. The MIC (Candida albicans (Ca)) was < 10 µg/mL, the MIC [3] was < 10 µg/mL and the MIC (Fusarium oxysporum (Fo)) was < 10 µg/mL. For the same compound, the “Marine Antifouling Rating, 6 Week Test, Bottom Panel” value (marine organisms) was 10, the “Marine Antifouling Rating, 6 Week Test, Top Panel” value (marine organisms) was 9 and the “Marine Antifouling Rating, 15 Week Test, Bottom Panel” value (marine organisms) was 6. The “Marine Antifouling Rating, 15 Week Test, Top Panel” value (marine organisms) was 9.

With `N#CSCSc1nnnn1-c1ccc(Cl)cc1` [III, 1-(4-Chlorophenyl)-5-thiomethylthiocyanato-1H-tetrazole] the MIC (Bacillus subtilis (Bs); nutrient agar pH 6.8, 30° C.) was < 10 µg/mL, the MIC (Bacillus subtilis (Bs); nutrient agar pH 8.2, 30° C.) was 50 µg/mL (≈ 176 µM) and the MIC ([1]; nutrient agar pH 6.8, 30° C.) was 25 µg/mL (≈ 88.1 µM). It also gave an MIC ([1]; nutrient agar pH 8.2, 30° C.) of 250 µg/mL (≈ 881 µM), an MIC ([2]; nutrient agar pH 6.8, 30° C.) of 25 µg/mL (≈ 88.1 µM) and an MIC ([2]; nutrient agar pH 8.2, 30° C.) of 50 µg/mL (≈ 176 µM). For the same compound, the MIC (Proteus vulgaris (Pv); nutrient agar pH 6.8, 30° C.) was 25 µg/mL (≈ 88.1 µM), the MIC (Proteus vulgaris (Pv); nutrient agar pH 8.2, 30° C.) was 100 µg/mL (≈ 352 µM) and the MIC (Aspergillus niger (An)) was < 1 µg/mL. For the same compound, the MIC (Candida albicans (Ca)) was 5 µg/mL (≈ 17.6 µM), the MIC [3] was < 1 µg/mL and the MIC (Fusarium oxysporum (Fo)) was 2.5 µg/mL (≈ 8.81 µM). For the same compound, the “Marine Antifouling Rating, 6 Week Test, Bottom Panel” value (marine organisms) was 9, the “Marine Antifouling Rating, 6 Week Test, Top Panel” value (marine organisms) was 9 and the “Marine Antifouling Rating, 15 Week Test, Bottom Panel” value (marine organisms) was 1. For the same compound, the “Marine Antifouling Rating, 15 Week Test, Top Panel” value (marine organisms) was 4.

`Cc1cccc(-n2nnnc2SCSC#N)c1` [VI, 1-(3-Methylphenyl)-5-thiomethylthiocyanato-1H-tetrazole] was tested, and the MIC (Bacillus subtilis (Bs); nutrient agar pH 6.8, 30° C.) was < 10 µg/mL, the MIC (Bacillus subtilis (Bs); nutrient agar pH 8.2, 30° C.) was 25 µg/mL (≈ 94.9 µM) and the MIC ([1]; nutrient agar pH 6.8, 30° C.) was 500 µg/mL (≈ 1900 µM). The MIC ([1]; nutrient agar pH 8.2, 30° C.) was 500 µg/mL (≈ 1900 µM), the MIC ([2]; nutrient agar pH 6.8, 30° C.) was 250 µg/mL (≈ 949 µM) and the MIC ([2]; nutrient agar pH 8.2, 30° C.) was 100 µg/mL (≈ 380 µM). For the same compound, the MIC (Proteus vulgaris (Pv); nutrient agar pH 6.8, 30° C.) was 100 µg/mL (≈ 380 µM), the MIC (Proteus vulgaris (Pv); nutrient agar pH 8.2, 30° C.) was 100 µg/mL (≈ 380 µM) and the MIC (Aspergillus niger (An)) was 5 µg/mL (≈ 19 µM). The MIC (Candida albicans (Ca)) was 5 µg/mL (≈ 19 µM), the MIC [3] was < 1 µg/mL and the MIC (Fusarium oxysporum (Fo)) was < 1 µg/mL. For the same compound, the “Marine Antifouling Rating, 6 Week Test, Bottom Panel” value (marine organisms) was 10, the “Marine Antifouling Rating, 6 Week Test, Top Panel” value (marine organisms) was 9 and the “Marine Antifouling Rating, 15 Week Test, Bottom Panel” value (marine organisms) was 9. For the same compound, the “Marine Antifouling Rating, 15 Week Test, Top Panel” value (marine organisms) was 8.

With `N#CSCSc1nnnn1C1CCCCC1` [X, 1-(Cyclohexyl)-5-thiomethylthiocyanato-1H-tetrazole] the MIC (Bacillus subtilis (Bs); nutrient agar pH 6.8, 30° C.) was < 10 µg/mL, the MIC (Bacillus subtilis (Bs); nutrient agar pH 8.2, 30° C.) was 25 µg/mL (≈ 97.9 µM) and the MIC ([1]; nutrient agar pH 6.8, 30° C.) was 500 µg/mL (≈ 1960 µM). For the same compound, the MIC ([1]; nutrient agar pH 8.2, 30° C.) was 500 µg/mL (≈ 1960 µM), the MIC ([2]; nutrient agar pH 6.8, 30° C.) was 250 µg/mL (≈ 979 µM) and the MIC ([2]; nutrient agar pH 8.2, 30° C.) was 100 µg/mL (≈ 392 µM). It also gave an MIC (Proteus vulgaris (Pv); nutrient agar pH 6.8, 30° C.) of 250 µg/mL (≈ 979 µM), an MIC (Proteus vulgaris (Pv); nutrient agar pH 8.2, 30° C.) of 250 µg/mL (≈ 979 µM) and an MIC (Aspergillus niger (An)) of 5 µg/mL (≈ 19.6 µM). The MIC (Candida albicans (Ca)) was 50 µg/mL (≈ 196 µM), the MIC [3] was < 1 µg/mL and the MIC (Fusarium oxysporum (Fo)) was 5 µg/mL (≈ 19.6 µM). For the same compound, the “Marine Antifouling Rating, 6 Week Test, Bottom Panel” value (marine organisms) was 10, the “Marine Antifouling Rating, 6 Week Test, Top Panel” value (marine organisms) was 9 and the “Marine Antifouling Rating, 15 Week Test, Bottom Panel” value (marine organisms) was 8. For the same compound, the “Marine Antifouling Rating, 15 Week Test, Top Panel” value (marine organisms) was 4.
